Experimental data published in article PMC5031696, “Synthesis, Biodistribution and In vitro Evaluation of Brain Permeable High Affinity Type 2 Cannabinoid Receptor Agonists [^11C]MA2 and [^18F]MA3” (Frontiers in Neuroscience, 2016).
Like-named read-outs stand apart in the source and are kept apart here.

Experiments:
[1] = target: T1, hCB1 (Homo sapiens, UniProt P21554); assay: functional cAMP assay, hCB1 versus hCB2; type: cell-based; settings: cAMP assays
T1 construct: host or cells: CHO-K1 beta-arrestin cells
T1 sequence (P21554 whole entry): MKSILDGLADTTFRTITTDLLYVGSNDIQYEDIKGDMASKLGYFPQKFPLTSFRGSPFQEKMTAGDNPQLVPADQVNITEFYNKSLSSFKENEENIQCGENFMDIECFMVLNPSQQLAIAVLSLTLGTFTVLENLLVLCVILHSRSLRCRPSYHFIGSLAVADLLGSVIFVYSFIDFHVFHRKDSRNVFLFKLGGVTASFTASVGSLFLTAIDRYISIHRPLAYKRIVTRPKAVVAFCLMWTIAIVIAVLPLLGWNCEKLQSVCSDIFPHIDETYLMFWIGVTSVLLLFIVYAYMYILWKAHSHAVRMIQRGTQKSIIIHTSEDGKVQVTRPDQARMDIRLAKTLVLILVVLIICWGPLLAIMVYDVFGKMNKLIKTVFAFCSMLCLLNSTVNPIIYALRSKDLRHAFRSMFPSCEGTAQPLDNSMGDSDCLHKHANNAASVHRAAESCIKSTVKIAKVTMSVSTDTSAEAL
Experimental: (§1) CHO-K1 beta-arrestin cells (DiscoveRx, Fremont, CA) expressing hCB2, mouse CB2 (mCB2), and human CB1 (hCB1) were cultured in F-12 Nutrient Mixture (HAM) supplemented with 10% fetal bovine serum (FBS), 300 μg/mL hygromycin and 800 μg/mL geneticin (G418). Cells were incubated in a humidified atmosphere at 37°C with 5% CO2.
(§2) cAMP was measured using cAMP-Nano-TRF detection kit (Roche Diagnostics, Penzberg, Germany). Cells were seeded 17–24 h prior to the experiment 3 × 10^4 cells per well in a black 96-well plate with flat clear bottom (Corning, Wiesbaden, Germany) in growth medium and incubated in 5% CO2 at 37°C in a humidified incubator. The growth medium was exchanged with Krebs Ringer bicarbonate buffer with 1 mmol/L 3-isobutyl-1-methylxanthine (IBMX), 0.1% fatty acid-free bovine serum albumin (BSA) and incubated at 30°C for 60 min. Agonist was added to a final assay volume of 100 μL and the mixture was incubated for 30 min at 30°C. The assay was stopped by the addition of 50 μL 3x lysis reagent and shaken for 2 h at room temperature. The time-resolved energy transfer was measured using an LF502 Nanoscan FLT (IOM, Berlin, Germany), equipped with a laser as excitation source. cAMP content was determined from the function of a standard curve spanning from 10 to 0.13 nmol/L cAMP.

[2] = target: T2, hCB2 (Homo sapiens, UniProt P34972); assay: functional cAMP assay, hCB2; type: cell-based; settings: for functional behaviour in cAMP assay: hCB2
T2 construct: host or cells: CHO-K1 beta-arrestin cells
T2 sequence (P34972 whole entry): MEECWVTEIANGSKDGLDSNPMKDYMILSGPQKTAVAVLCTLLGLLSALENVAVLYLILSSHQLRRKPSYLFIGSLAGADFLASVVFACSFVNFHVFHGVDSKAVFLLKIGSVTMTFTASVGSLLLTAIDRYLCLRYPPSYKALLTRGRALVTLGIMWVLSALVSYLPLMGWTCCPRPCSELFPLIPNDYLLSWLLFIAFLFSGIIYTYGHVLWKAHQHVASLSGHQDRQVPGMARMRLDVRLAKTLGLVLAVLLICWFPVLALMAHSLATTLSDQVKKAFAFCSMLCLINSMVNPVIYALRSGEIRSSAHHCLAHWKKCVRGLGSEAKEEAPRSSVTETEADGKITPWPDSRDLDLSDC
Experimental: as §1, §2

[3] = target: T1, hCB1; assay: radioligand binding assay with [^3H]CP55940, hCB1; settings: for Ki ratio hCB1/hCB2: selectivity
Experimental: as §1
(§3) Stably transfected cells were treated for 24 h with 5 mM butyrate in growth medium before harvesting, followed by homogenization in 15 mmol/L Hepes, 0.3 mmol/L EDTA, 1 mmol/L EGTA, 2 mmol/L MgCl2, complete EDTA-free protease inhibitor (Roche Applied Science, Rotkreuz, Switzerland), pH 7.4 using a glass potter and centrifugation at 47,800 g at 4°C for 30 min. The pellet was then rehomogenized twice in the same buffer and centrifuged (47,800 g, 4°C, 30 min). The final pellet was then resuspended in 75 mmol/L Tris, 0.3 mmol/L EDTA, 1 mmol/L EGTA, 12.5 mmol/L MgCl2, 250 mmol/L sucrose, pH 7.4 at a protein concentration of 1 to 3 mg/mL, aliquoted, frozen on dry ice and stored at −80°C. Saturation binding was performed with 0.05 to 2.6 nM [^3H]CP55940 (Perkin Elmer) and 1.0 μg of membrane protein. CP55940 (10 μM) was used to define non-specific binding. More than 95% of the total binding signal was specific. Assay buffer consisted of 50 mmol/L Tris-HCl, 5 mmol/L MgCl2, 2.5 mmol/L EGTA, and 0.1% fatty acid-free BSA, pH 7.4. Assays were initiated by addition of membranes in a final volume of 250 μL/well. Mixtures were incubated for 3 h at room temperature and then vacuum filtered and rinsed with wash buffer (50 mmol/L Tris-HCl, 5 mmol/L MgCl2, 2.5 mmol/L EGTA, and 0.5% fatty acid-free BSA, pH 7.4) on a Filtermate cell harvester through Packard GF/B filters presoaked in 0.3% polyethylenimine.
(§4) For competition binding, membrane preparations were incubated with 0.3 nM [^3H]CP55940 in the presence or absence of increasing concentrations of ligands for 60 min at 30°C in a final volume of 0.2 mL of 50 mmol/L Tris-HCl, 5 mmol/L MgCl2, 2.5 mmol/L EGTA, 0.1% fatty acid-free BSA, and 1% DMSO, pH 7.4, buffer, gently shaking. Non-specific binding was defined with 10 μM CP55940. All binding reactions were terminated by vacuum filtration onto 0.5% polyethylenimine presoaked GF/B filter plates (Packard) followed by seven brief washes with 2 mL of ice-cold binding buffer containing 0.5% fatty acid-free BSA. Plates were dried at 50°C for 1 h and liquid scintillation counting was used to determine bound radiolabel. IC50 values and Hill slopes were determined by a four parameter logistic model using ActivityBase (ID Business Solution, Guilford, UK). pKi values were determined by the generalized Cheng-Prusoff equation (Yung-Chi and Prusoff, [1973]).

[4] = target: T3, mCB2 (Mus musculus, UniProt P47936); assay: functional cAMP assay, mCB2; type: cell-based
T3 construct: host or cells: CHO-K1 beta-arrestin cells
T3 sequence (P47936 whole entry): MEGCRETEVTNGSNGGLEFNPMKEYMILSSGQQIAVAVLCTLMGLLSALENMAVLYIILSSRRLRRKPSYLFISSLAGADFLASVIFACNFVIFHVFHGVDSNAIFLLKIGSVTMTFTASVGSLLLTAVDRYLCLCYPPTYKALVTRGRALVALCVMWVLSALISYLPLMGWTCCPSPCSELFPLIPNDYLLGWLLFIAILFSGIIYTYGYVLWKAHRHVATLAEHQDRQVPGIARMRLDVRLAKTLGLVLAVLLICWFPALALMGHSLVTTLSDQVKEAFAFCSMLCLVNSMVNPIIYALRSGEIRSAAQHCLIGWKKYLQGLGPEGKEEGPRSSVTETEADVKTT
Experimental: as §1, §2

[5] = target: T3, mCB2; assay: radioligand binding assay with [^3H]CP55940, mCB2
Experimental: as §1, §3, §4

[6] = target: T2, hCB2; assay: radioligand binding assay with [^3H]CP55940, hCB2
Experimental: as §1, §3, §4

[7] = test system: CB2; parameters: method as in Evens et al., 2011; settings: ref Evens et al., 2011; cited from earlier work
[8] = CHO-K1 cells expressing hCB2, read-out: hCB2 cAMP EC50
[9] = competition with [^3H]CP55940, read-out: hCB1 Ki
[10] = CHO-K1 cells expressing mCB2, read-out: mCB2 cAMP EC50
[11] = competition with [^3H]CP55940, read-out: mCB2 Ki
[12] = competition with [^3H]CP55940, read-out: hCB2 Ki

Row | SMILES | EC50 ratio hCB1/hCB2 [1] | EC50 [2] | hCB2 cAMP % eff (efficacy) ([2]; CHO-K1 cells expressing hCB2) | functional behaviour in cAMP assay [2] | Ki [3] | Ki ratio hCB1/hCB2 [3] | EC50 [4] | mCB2 cAMP % eff (efficacy) ([4]; CHO-K1 cells expressing mCB2) | Ki [5] | Ki [6] | EC50 [2, 8] | Ki [3, 9] | EC50 [4, 10] | Ki [5, 11] | Ki [6, 12] | binding affinity for CB2 [7] | species difference in binding affinity ([6]; hCB2 versus mCB2)
1 | COc1ccc2ncc(NCCCc3nc(-c4ccc(F)cc4Cl)no3)cc2c1 [MA2, N-(3-(3-(2-chloro-4-fluorophenyl)-1,2,4-oxadiazol-5-yl)propyl)-6-methoxyquinolin-3-amine] | 430 | 3 nM | 101% | agonists | 1610 nM | 19 | 2 nM | 100% | 241 nM | 87 nM | – | – | – | – | – | – | –
2 | Fc1ccc(-c2noc(CCCNc3cnc4ccc(OC(F)(F)F)cc4c3)n2)c(Cl)c1 [Compound 12, reference compound] | 1300 | – | 100% | agonists | – | 202 | – | 100% | – | – | 0.15 nM | 568 nM | 0.18 nM | 4.6 nM | 2.8 nM | – | –
3 | Cc1c(CCN2CCOCC2)c2cc(O[11CH3])ccc2n1C(=O)c1cccc(Cl)c1Cl [[^11C]GW405833] | – | – | – | – | – | – | – | – | – | – | – | – | – | – | – | 35 nM | –
4 | Cc1c(CCN2CCOCC2)c2cc(OCC[18F])ccc2n1C(=O)c1cccc(Cl)c1Cl [[^18F]FE-GW405833] | – | – | – | – | – | – | – | – | – | – | – | – | – | – | – | 27 nM | –
5 | CCCCOc1c(OC)ccc2cc(C(=O)NC3CCCCC3)c(=O)[nH]c12 [NE40, reference compound] | > 1250 | – | −178% | inverse agonist | – | 241 | – | −128% | – | – | 8 nM | 1040 nM | 11 nM | 2 nM | 4 nM | – | no species difference
